PMC12735688, “Discovery and Activity Evaluation of Novel Dibenzoxazepinone Derivatives as Glycogen Phosphorylase Inhibitors” (Molecules, 2025)
Structures can show the parent of a compound that is named as a salt. Where two headings read alike, the source gives them in different places.

Tests used:
[1] = target: T1, rabbit muscle glycogen phosphorylase a (RMGPa) (Oryctolagus cuniculus, UniProt P00489); design: method as in PMID 33906369; conditions: previously reported parent compound; read-out: IC50 (RMGPa inhibition) of parent compound; cited from earlier work
T1 construct: purchased
T1 sequence (P00489 2-843 limits assumed): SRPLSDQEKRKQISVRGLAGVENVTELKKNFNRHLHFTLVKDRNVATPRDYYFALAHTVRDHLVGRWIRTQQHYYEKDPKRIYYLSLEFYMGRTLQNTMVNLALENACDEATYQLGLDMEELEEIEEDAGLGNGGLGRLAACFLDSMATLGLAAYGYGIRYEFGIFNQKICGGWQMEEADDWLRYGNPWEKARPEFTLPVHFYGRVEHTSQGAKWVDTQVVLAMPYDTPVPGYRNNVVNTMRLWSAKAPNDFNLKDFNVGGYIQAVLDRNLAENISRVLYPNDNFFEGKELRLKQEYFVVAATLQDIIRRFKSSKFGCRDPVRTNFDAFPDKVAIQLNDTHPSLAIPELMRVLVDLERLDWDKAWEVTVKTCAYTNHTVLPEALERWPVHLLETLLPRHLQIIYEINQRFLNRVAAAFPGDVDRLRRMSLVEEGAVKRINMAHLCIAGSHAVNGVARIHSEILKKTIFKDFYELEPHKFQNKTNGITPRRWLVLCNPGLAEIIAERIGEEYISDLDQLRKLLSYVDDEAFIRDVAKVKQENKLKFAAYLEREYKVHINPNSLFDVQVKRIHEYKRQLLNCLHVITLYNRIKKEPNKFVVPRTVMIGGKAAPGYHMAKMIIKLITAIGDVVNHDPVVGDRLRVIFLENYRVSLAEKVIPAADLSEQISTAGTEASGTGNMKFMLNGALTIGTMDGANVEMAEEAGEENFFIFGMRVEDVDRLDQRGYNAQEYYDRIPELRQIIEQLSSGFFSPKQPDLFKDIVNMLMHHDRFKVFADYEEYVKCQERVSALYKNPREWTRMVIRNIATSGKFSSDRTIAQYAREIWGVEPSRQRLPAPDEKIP

[2] = target: T1, rabbit muscle glycogen phosphorylase a (RMGPa); experiment: RMGPa enzyme inhibition assay (phosphate release, malachite green); format: biochemical; conditions: mean ± S.D. of three determinations; NI means no inhibition
Experimental: The synthesized compounds were evaluated in an enzyme inhibition assay against rabbit muscle glycogen phosphorylase a (RMGPa), a commercially available enzyme that shares considerable sequence similarity with human liver GPa. As described previously, the activity of RMGPa was measured by detecting the release of phosphate from glucose-1-phosphate in the direction of glycogen synthesis. PSN-357, a GP inhibitor in clinical Phase II, was used as positive control.
The inhibitory activity of the test compounds against RMGPa was evaluated using a microplate reader (Bio-Rad Laboratories, Berkeley, CA, USA), based on the release of inorganic phosphate during glycogenolysis. First, the test compounds were dissolved in DMSO and diluted to various concentrations for IC50 determination. A 100 μL aliquot of buffer, containing 50 mM Hepes (pH = 7.2), 100 mM potassium chloride (KCl), 2.5 mM magnesium chloride (MgCl2), 0.5 mM glucose-1-phosphate, 1 mg/mL glycogen, and the test compound solution, was added to a 96-well Costar microplate (Corning Inc., New York, NY, USA). The reaction mixture was incubated at 22 °C for 25 min, after which 150 μL of solution containing 10 mg/mL ammonium molybdate and 0.38 mg/mL malachite green was added to stop the reaction. The absorbance of phosphate was measured at 620 nm. IC50 values were determined by fitting the inhibition data to a dose–response curve using a logistic derivative equation.

[3] = system: hyperglycemic mice induced by adrenaline; experiment: Acute hypoglycemic experiment in adrenaline-induced hyperglycemic mice; format: in vivo, C57BL/6J mice; conditions: 400 mg/kg single oral dose, about 2 h after administration; model group 8.91 ± 0.69; p < 0.01; mean ± SEM
Experimental: First, its ability was investigated by oral administration with one dose of 0.5% CMC-NA (model group) or compound Id at different concentrations (12.5, 25 and 50 mg/kg) for treatment. Metformin (400 mg/kg) was selected as a positive control.
The animal experiments were conducted following the method described in reference. Male C57BL/6J mice (6–8 weeks old, 18–20 g) were obtained from Beijing Huafukang Biotechnology Co., Ltd. (Beijing, China), maintained under standard conditions (food/water ad libitum), and acclimatized for 1 week. After acclimatization, baseline blood glucose was measured via tail vein sampling. Subsequently, mice were randomized into 6 groups (10/group) by blood glucose/body weight, with no significant differences in initial blood glucose (mean ± SEM). Post-grouping, daily oral 0.5% CMC-Na (as vehicle) was given. On the night before the experimental day, mice were fasted overnight with free access to water. On the experimental day, mice were orally administered Compound Id (50, 25, 12.5 mg/kg), metformin (400 mg/kg, as positive control), or 0.5% CMC-Na, followed by subcutaneous 0.2 mg/kg adrenaline to induce hyperglycemia. Finally, blood glucose was measured/recorded at 0, 30, 60, 90, and 120 min post-administration via JPS-5 meter.

SMILES | IC50 [2] [nM] | other results
O=C1CCOc2ccc(NC(=O)c3cc4cc(Cl)ccc4[nH]3)cc2N1 [Compound 1] |  | IC50 [1]: 250 ± 50 nM
O=C(Nc1ccc2c(c1)NC(=O)c1ccc(C(F)(F)F)cc1O2)c1cc2cc(O)ccc2[nH]1 [IIb] | 723 ± 82 | 
CN(C)C(=N)N=C(N)N [Metformin, Metformin hydrochloride, reference compound] |  | blood glucose [3]: 6.57 ± 0.71 mmol/L

Further lines, with some results ahead:

IC50 [2] [nM] | SMILES | other results
840 ± 50 | COc1ccc2[nH]c(C(=O)Nc3ccc4c(c3)NC(=O)c3ccc(C(F)(F)F)cc3O4)cc2c1 [IIc] | 
1790 ± 104 | COc1cnc2[nH]c(C(=O)Nc3ccc4c(c3)NC(=O)c3ccc(C(F)(F)F)cc3O4)cc2c1 [IId] | 
338 ± 55 | Cc1ccc2[nH]c(C(=O)Nc3ccc4c(c3)NC(=O)c3ccc(C(F)(F)F)cc3O4)cc2c1 [IIf] | 
2180 ± 156 | CCCc1cc(OC)c2c(c1)C(=O)Nc1cc(NC(=O)c3cc4cc(Cl)ccc4[nH]3)ccc1O2 [Ie, 5-chloro-N-(3-methoxy-11-oxo-5-propyl-10,11-dihydrodibenzo[b,f][1,4]oxazepin-8-yl)-1H-indole-2-carboxamide] | 
